{
  "source": "patent US10487146B2",
  "about": "“Oxidized LDL as a biomarker for neurological complications of pregnancy” (The University of Vermont and State Agricultural College, priority 2012, dated 2019)",
  "test_system": "cerebral vein of Galen from NonP rats",
  "experiment": "BBB permeability (hydraulic conductivity, Lp) in isolated cerebral veins perfused with human plasma",
  "design": "species or system rat",
  "description": "BBB permeability measurements. The first set of experiments was performed to determine the effects of circulating factors in plasma from EPE and LPE women on the BBB permeability compared to NP women and NonP women. We measured Lp, the critical transport parameter that relates water flux to hydrostatic pressure, in isolated cerebral veins from nonpregnant female rats after perfusing with plasma from the 4 groups of women, as described previously (52). This method of measuring BBB permeability was specifically developed to have a direct measure of water permeability and has been successfully used in several previous studies (13, 52-54).\nThe vein of Galen was used for all permeability experiments as representation of the BBB because this vein has BBB properties and is where BBB disruption occurs first during acute hypertension (55). […] After this incubation period with plasma, intravascular pressure was increased to 25±0.1 mmHg and the drop in pressure due to transvascular filtration of water out of the vessel in response to hydrostatic pressure was measured for 40 minutes. […] After flux was determined, transvascular filtration per surface area (Jv/S) and Lp were calculated by normalizing flux to the surface area and oncotic pressure of the plasma perfusate that was determined by a commercially available oncometer. […]",
  "note": "“Also recorded” adds a separate entry of the source.",
  "data": [
    {"molecule": "C[n+]1ccc(-c2c3nc(c(-c4cc[n+](C)cc4)c4ccc([n-]4)c(-c4cc[n+](C)cc4)c4nc(c(-c5cc[n+](C)cc5)c5ccc2[n-]5)C=C4)C=C3)cc1.[Cl-].[Cl-].[Cl-].[Cl-].[Cl-].[Fe+3]", "note": "[FeTMPyP, Fe(III)tetrakis (1-methyl-4-pyridyl) porphyrin pentachlorideporphyrin pentachloride]", "values": [
      {"measurement": "effect on BBB permeability (Lp at 36 minutes) induced by plasma from EPE women", "setting": "EPE plasma plus 50 μM FeTMPyP", "value": "significantly inhibited BBB permeability; also recorded: inhibited the BBB permeability induced by plasma from EPE women"},
      {"measurement": "effect on BBB permeability (Lp) induced by exogenous oxLDL", "setting": "NonP plasma plus 3.5 μg/ml oxLDL and 50 μM FeTMPyP", "value": "inhibited the BBB permeability induced by 3.5 μg/ml exogenous oxLDL"}
    ]}
  ]
}
